Values of other authors as cited in US9949942B2, “Sustained release delivery of active agents to treat glaucoma and ocular hypertension” (Mati Therapeutics Inc., priority 0208, dated 2018).

Legend:
[1] = man; after topical administration
[2] = not given; remark: listed apart in the source

In the case of `CC(C)OC(=O)CCC/C=C\C[C@@H]1[C@@H](CC[C@@H](O)CCc2ccccc2)[C@H](O)C[C@@H]1O` [Latanoprost, isopropyl-(Z)-7[(1R,2R,3R,5S)3,5-dihydroxy-2-[(3R)-3-hydroxy-5-phenylpentyl]cyclopentyl]-5-heptenoate], the “frequency of retinal artery embolus, retinal detachment, vitreous hemorrhage from diabetic retinopathy” value (clinical trials) is given as “rarely reported”, the “rate of upper respiratory tract infection/cold/flu (most common systemic adverse events)” value (clinical trials) is given as “approximately 4%” and the “subjects requiring discontinuation of therapy because of intolerance to conjunctival hyperemia” value (clinical trials) is given as “Less than 1%”. For the same compound, the “ocular adverse events: subjects affected” value (conjunctivitis, diplopia, discharge from the eye) was “Less than 1%”, the “time to peak concentration in the aqueous humor” value [1] was “about two” and the “solubility in acetone, ethanol, ethyl acetate, isopropanol, methanol and octanol” value ([2]; acetone, ethanol, ethyl acetate, isopropanol, methanol, octanol) was “freely soluble”. For the same compound, the solubility in acetonitrile ([2]; acetonitrile) was “very soluble” and the solubility in water ([2]; water) was “practically insoluble”.
